From patent US10287298B2, “Nitrogen-containing analogs of salinomycin, synthesis and use against cancer stem cells and malaria” (Centre National de la Recherche Scientifique (CNRS), priority 2014, dated 2019) come the findings set out here.

Read-outs that look alike come from different tables or passages of the source.

The subject of experiment [1] is HMLER CD24− cells. The experiment is described as follows: Cell viability assay (CellTiter-Blue), IC50 assessment. It is filed as cell-based, Human. The conditions noted are these: for IC50: Homo sapiens, read-out: IC50 CD24−; for activity against CD24 cells compared with salinomycine: comparison of the IC50 results. The protocol: (§1) FIG. 1 represents viability of HMLER CD24− cells (full line) and HMLER CD24+ cells (dotted line) at different concentration of salinomycine (1A), AM5 […] or AM13 (1D).
(§2) Cell viability assay was carried out by plating 1000 cells per well in 96-well plates. NAC (2 mM, A9165 Sigma) or DFO (1 mM) were pretreated 2 hours prior to the compound treatment. CellTiter-Blue® Reagent (Promega; G3582) (20 μl/well) was added after 24, 48, or 72 hours treatment and cells were incubated for 1 hour before recording fluorescence (560(20)Ex/590(10)Em) using a Perkin Elmer Wallac 1420 Victor2 Microplate Reader.

A further experiment concerns HMLER CD24+ cells. The experiment is described as above. The settings on record: Homo sapiens, read-out: IC50 CD24+. In kind it is cell-based. As for the experimental part:
as §1, §2

Experiment [2] relates to HMLER CD24− cells. In words: Cell proliferation and formation of mammospheres. In kind it is cell-based, Human. An excerpt: FIG. 2 is a representative phase contrast photomicrographs of mammospheres formed after 11 days in the absence of any added compound (Control) or in the presence of a defined amount of salinomycine, AM5, AM9 or AM13. […] The size of the mammospheres is correlated with progenitor cell proliferation, whereas the number of mammospheres formed after serial passages at clonal density is correlated with the self-renewal capacity of primitive Cancer Stem Cells. […]
FIG. 9 represents images of the third generation of mammospheres formed from individual HMLER CD24low cells treated during 7 days with the indicated drug. The size of the mammospheres is correlated with progenitor cell proliferation capacity, whereas the number of mammospheres formed after serial passages at clonal density is correlated with the self-renewal capacity of primitive Cancer Stem Cells.
AM5, AM9, AM13 and salinomycine were assessed for their capability to inhibit cell proliferation and formation of mammospheres. […]
AM5 and AM23 and salinomycine were assessed for their capability to inhibit cell proliferation and formation of mammospheres.

Where [3] appears, read: HMLER CD24− cells, cell viability.
[4] abbreviates: HMLER CD24+ cells, cell viability.

For the compound `CCC(C(=O)O)[C@H]1CC[C@H](C)C([C@@H](C)[C@H](O)[C@H](C)C(=O)[C@H](CC)[C@H]2O[C@]3(C=CC(=O)[C@]4(CC[C@@](C)([C@H]5CC[C@](O)(CC)[C@H](C)O5)O4)O3)[C@H](C)C[C@@H]2C)O1` (stereo partly drawn) [AM6], the IC50 in the experiment on HMLER CD24− cells [1] turned out to be 6180 nM; with HMLER CD24+ cells it was 12800 nM.

For `CCC(C(=O)OC)[C@H]1CC[C@H](C)C([C@@H](C)[C@H](O)[C@H](C)C(=O)[C@H](CC)[C@H]2O[C@]3(C=C[C@@H](OC(C)=O)[C@]4(CC[C@@](C)([C@H]5CC[C@](O)(CC)[C@H](C)O5)O4)O3)[C@H](C)C[C@@H]2C)O1` (stereo partly drawn) [AM7], the IC50 came out at 7250 nM with HMLER CD24− cells [1] (setting [3]) and 12500 nM with HMLER CD24+ cells (setting [4]).

Take `CCC(C(=O)O)[C@H]1CC[C@H](C)C([C@@H](C)[C@H](O)[C@H](C)C(=O)[C@H](CC)[C@H]2O[C@]3(C=C[C@@H](NOCc4ccccc4)[C@]4(CC[C@@](C)([C@H]5CC[C@](O)(CC)[C@H](C)O5)O4)O3)[C@H](C)C[C@@H]2C)O1` (stereo partly drawn) [AM8]: the values for the IC50 in the experiment on HMLER CD24− cells [1] (setting [3]) and with HMLER CD24+ cells (setting [4]) were 1020 nM and 8060 nM, respectively. The “activity against CD24 cells compared with salinomycine” value (shortened to “activity … compared with salinomycine”) in the experiment on HMLER CD24− cells [1] is reported as “significantly improved activity”.

Take `C#CCN[C@@H]1C=C[C@]2(O[C@H]([C@@H](CC)C(=O)[C@@H](C)[C@@H](O)[C@H](C)C3O[C@@H](C(CC)C(=O)OC)CC[C@@H]3C)[C@@H](C)C[C@H]2C)O[C@@]12CC[C@@](C)([C@H]1CC[C@](O)(CC)[C@H](C)O1)O2` (stereo partly drawn) [AM9, Me-Sal-propargylamine]: the IC50 turned out to be 11800 nM in the experiment on HMLER CD24− cells [1] (setting [3]) and 22000 nM in the experiment with HMLER CD24+ cells (setting [4]). Moreover, the “activity … compared with salinomycine” value in the experiment on HMLER CD24− cells [1] is “lower efficiency than salinomycine”. Moreover, in the experiment with HMLER CD24− cells [2], the “effect against tumorsphere formation / CSC maintenance” value is “ineffective”. Further, the “inhibition of cell proliferation” value in the experiment with HMLER CD24− cells [2] (at 500 nM) is recorded as “did not inhibit cell proliferation”.

On to `C#CCN[C@@H]1C=C[C@]2(O[C@H]([C@@H](CC)C(=O)[C@@H](C)[C@@H](O)[C@H](C)C3O[C@@H](C(CC)C(=O)OCC#C)CC[C@@H]3C)[C@@H](C)C[C@H]2C)O[C@@]12CC[C@@](C)([C@H]1CC[C@](O)(CC)[C@H](C)O1)O2` (stereo partly drawn) [AM10], for which the half-maximal inhibitory concentration (IC50) with HMLER CD24− cells [1] (setting [3]) came out at 10000 nM; with HMLER CD24+ cells (setting [4]), 19700 nM. Also, the “activity … compared with salinomycine” value in the experiment with HMLER CD24− cells [1] is listed as “lower efficiency than salinomycine”.

Consider `CCC(C(=O)O)[C@H]1CC[C@H](C)C([C@@H](C)[C@H](O)[C@H](C)C(=O)[C@H](CC)[C@H]2O[C@]3(C=C[C@@H](NCc4ccccc4)[C@]4(CC[C@@](C)([C@H]5CC[C@](O)(CC)[C@H](C)O5)O4)O3)[C@H](C)C[C@@H]2C)O1` (stereo partly drawn) [AM11], for which the values for the IC50 with HMLER CD24− cells [1] (setting [3]) and in the experiment with HMLER CD24+ cells (setting [4]) were 800 nM and 6700 nM, respectively. The “activity … compared with salinomycine” value in the experiment on HMLER CD24− cells [1] is given as “significantly improved activity”.

For `CCCCCCN[C@@H]1C=C[C@]2(O[C@H]([C@@H](CC)C(=O)[C@@H](C)[C@@H](O)[C@H](C)C3O[C@@H](C(CC)C(=O)O)CC[C@@H]3C)[C@@H](C)C[C@H]2C)O[C@@]12CC[C@@](C)([C@H]1CC[C@](O)(CC)[C@H](C)O1)O2` (stereo partly drawn) [AM12], the IC50 with HMLER CD24− cells [1] (setting [3]) was 1790 nM; in the experiment with HMLER CD24+ cells (setting [4]) it was 6920 nM. Further, the “activity … compared with salinomycine” value in the experiment with HMLER CD24− cells [1] was “significantly improved activity”.

As for `CCCCCCCCCCCCN[C@@H]1C=C[C@]2(O[C@H]([C@@H](CC)C(=O)[C@@H](C)[C@@H](O)[C@H](C)C3O[C@@H](C(CC)C(=O)O)CC[C@@H]3C)[C@@H](C)C[C@H]2C)O[C@@]12CC[C@@](C)([C@H]1CC[C@](O)(CC)[C@H](C)O1)O2` (stereo partly drawn) [AM13, Sal-Dodecylamine], the 50% inhibitory concentration (IC50) with HMLER CD24− cells [1] (setting [3]) was 72.7 nM; in the experiment with HMLER CD24+ cells (setting [4]), 3190 nM. In the experiment on HMLER CD24− cells [1], the “activity … compared with salinomycine” value is on record as “significantly improved activity”. The “inhibition of cell proliferation, efficacy in comparison with salinomycine” value in the experiment on HMLER CD24− cells [2] (at 30 nM) was “ten-fold improved efficacy”. Moreover, in the experiment on HMLER CD24− cells [2] (mammospheres after 11 days, low nanomolar concentrations), the “number and size of mammosphere” value was “reduced the number and the size of mammosphere”.

In the case of `C#CCCCN[C@@H]1C=C[C@]2(O[C@H]([C@@H](CC)C(=O)[C@@H](C)[C@@H](O)[C@H](C)C3O[C@@H](C(CC)C(=O)O)CC[C@@H]3C)[C@@H](C)C[C@H]2C)O[C@@]12CC[C@@](C)([C@H]1CC[C@](O)(CC)[C@H](C)O1)O2` (stereo partly drawn) [AM16], the IC50 with HMLER CD24− cells [1] (setting [3]) came to 300 nM; in the experiment with HMLER CD24+ cells (setting [4]), 1170 nM.

As to `C#CCN[C@H]1C=C[C@]2(O[C@H]([C@@H](CC)C(=O)[C@@H](C)[C@@H](O)[C@H](C)C3O[C@@H](C(CC)C(=O)O)CC[C@@H]3C)[C@@H](C)C[C@H]2C)O[C@@]12CC[C@@](C)([C@H]1CC[C@](O)(CC)[C@H](C)O1)O2` (stereo partly drawn) [AM17], the IC50 with HMLER CD24− cells [1] (setting [3]) was 100 nM; in the experiment on HMLER CD24+ cells (setting [4]) it was 2000 nM.

On to `CCC(C(=O)NO)[C@H]1CC[C@H](C)C([C@@H](C)[C@H](O)[C@H](C)C(=O)[C@H](CC)[C@H]2O[C@]3(C=C/C(=N\O)[C@]4(CC[C@@](C)([C@H]5CC[C@](O)(CC)[C@H](C)O5)O4)O3)[C@H](C)C[C@@H]2C)O1` (stereo partly drawn) [AM18], for which the IC50 with HMLER CD24− cells [1] (setting [3]) turned out to be 100 nM; in the experiment on HMLER CD24+ cells (setting [4]), 2500 nM.

In the case of `CCCN[C@@H]1C=C[C@]2(O[C@H]([C@@H](CC)C(=O)[C@@H](C)[C@@H](O)[C@H](C)C3O[C@@H](C(CC)C(=O)O)CC[C@@H]3C)[C@@H](C)C[C@H]2C)O[C@@]12CC[C@@](C)([C@H]1CC[C@](O)(CC)[C@H](C)O1)O2` (stereo partly drawn) [AM21], the results for the IC50 in the experiment on HMLER CD24− cells [1] (setting [3]) and with HMLER CD24+ cells (setting [4]) were 340 nM and 6500 nM, respectively.

Turning to `C=CCN[C@@H]1C=C[C@]2(O[C@H]([C@@H](CC)C(=O)[C@@H](C)[C@@H](O)[C@H](C)C3O[C@@H](C(CC)C(=O)O)CC[C@@H]3C)[C@@H](C)C[C@H]2C)O[C@@]12CC[C@@](C)([C@H]1CC[C@](O)(CC)[C@H](C)O1)O2` (stereo partly drawn) [AM22], the IC50 is 300 nM with HMLER CD24− cells [1] (setting [3]) and 1530 nM in the experiment on HMLER CD24+ cells (setting [4]).

Turning to `CCC(C(=O)O)[C@H]1CC[C@H](C)C([C@@H](C)[C@H](O)[C@H](C)C(=O)[C@H](CC)[C@H]2O[C@]3(C=C[C@@H](NC4CCC4)[C@]4(CC[C@@](C)([C@H]5CC[C@](O)(CC)[C@H](C)O5)O4)O3)[C@H](C)C[C@@H]2C)O1` (stereo partly drawn) [AM24], the IC50 is 107 nM with HMLER CD24− cells [1] (setting [3]) and 1400 nM with HMLER CD24+ cells (setting [4]).

Take `CCC(C(=O)O)[C@H]1CC[C@H](C)C([C@@H](C)[C@H](O)[C@H](C)C(=O)[C@H](CC)[C@H]2O[C@]3(C=C[C@@H](NC4CCCC4)[C@]4(CC[C@@](C)([C@H]5CC[C@](O)(CC)[C@H](C)O5)O4)O3)[C@H](C)C[C@@H]2C)O1` (stereo partly drawn) [AM25]: the half-inhibitory concentration (IC50) in the experiment with HMLER CD24− cells [1] (setting [3]) is 108 nM; with HMLER CD24+ cells (setting [4]) it was 1360 nM.

In the case of `CCC(C(=O)O)[C@H]1CC[C@H](C)C([C@@H](C)[C@H](O)[C@H](C)C(=O)[C@H](CC)[C@H]2O[C@]3(CC[C@@H](NCC(C)C)[C@]4(CC[C@@](C)([C@H]5CC[C@](O)(CC)[C@H](C)O5)O4)O3)[C@H](C)C[C@@H]2C)O1` (stereo partly drawn) [AM26], the figures for the IC50 in the experiment on HMLER CD24− cells [1] (setting [3]) and with HMLER CD24+ cells (setting [4]) were 1150 nM and 10100 nM, respectively.

Regarding `CCC(C(=O)NO)[C@H]1CC[C@H](C)C([C@@H](C)[C@H](O)[C@H](C)C(=O)[C@H](CC)[C@H]2O[C@]3(C=C[C@@H](NC4CC4)[C@]4(CC[C@@](C)([C@H]5CC[C@](O)(CC)[C@H](C)O5)O4)O3)[C@H](C)C[C@@H]2C)O1` (stereo partly drawn) [AM28], the IC50 with HMLER CD24− cells [1] (setting [3]) was determined as 6430 nM; with HMLER CD24+ cells (setting [4]) it was 5830 nM.

With `CC(=O)O[C@H]1C(=O)[C@@]2(C)[C@H]([C@H](OC(=O)c3ccccc3)[C@]3(O)C[C@H](OC(=O)[C@H](O)[C@@H](NC(=O)c4ccccc4)c4ccccc4)C(C)=C1C3(C)C)[C@]1(OC(C)=O)CO[C@@H]1C[C@@H]2O` [paclitaxel, reference compound], the “effect against tumorsphere formation / CSC maintenance” value in the experiment on HMLER CD24− cells [2] was “poorly effective”.
